What was measured:
[1] = test system: H3N2-specific antibodies; experiment: α-GC in first, second or both priming doses of H3N2, challenge at week 56; type: in vivo, C57BL/6 mice
Text: (§1) FIG. 8 depicts the immunisation schedule used to assess whether α-GC is required to be present in all vaccine doses used at priming. 20 C57BL/6 female mice, aged 6-8 weeks, were divided into 4 groups of 5 mice. Group 1) was immunised with H3N2 in PBS at week 0 and H3N2+α-GC 2 weeks later. Group 2) were immunised with H3N2+α-GC at week 0 and H3N2 in PBS 2 weeks later. Group 3) were immunised with H3N2 in PBS at week 0 and week 2. Group 4) were immunised with H3N2 and α-GC at week 0 and 2 weeks later. 56 weeks after the initial immunisation, mice in all groups were challenged with 3 μg H3N2 in PBS and recall response was assessed at 58 weeks. All immunisations were intramuscular.
as §1, with “20” for “FIG. 8 depicts the immunisation schedule used to assess whether α-GC is required to be present in all vaccine doses used at priming. 20”, “PBS.” for “PBS and recall response was assessed at 58 weeks.”

[2] = test system: MenB antigens ΔG287nz-953, 936-741 and 961c; design: species or system mice; settings: mouse, in vivo
[3] = test system: MenB-specific memory B cells; design: species or system mice; settings: mouse, in vivo
[4] = test system: H3N2-specific antibodies; experiment: H3N2 antibody response in mice bearing or lacking iNKT cells or CD1d; type: in vivo; settings: mice lacking CD1d (CD1−/−); data not shown
Text: Mice lacking iNKT cells (Ja18−/−) immunised with H3N2 and α-GC (closed boxes) show no enhancement in serum titer of H3N2-specific antibodies compared to mice lacking iNKT cells immunised with H3N2 alone (open boxes). All immunisations were subcutaneous.

[5] = test system: CD4 T cells producing TNFα; type: in vivo, CD1 mice; settings: 10 days after 2nd immunisation, splenocytes cultured 16 hours
Experimental: FIG. 14 show a comparison of the CD4 T cell response against recombinant MenB antigens in mice immunised intramuscularly on day 0 and 21 with: a) a combination vaccine containing 3 MenB antigens and α-GC; b) a combination vaccine containing 3 MenB antigens and Alum; or c) with a combination vaccine containing 3 MenB antigens alone. The CD4 T cell response was assessed two weeks after the second immunisation by incubating total splenocytes with the indicated amount of MenB recombinant proteins for 16 hours ([…] of which in the presence of Brefeldin A). The number CD4 T cells producing TNFα was determined by intracellular staining and FACS analysis). […] As a positive control, response of all three groups of mice to polyclonal stimulation was tested.
A second experiment was conducted to assess the ex vivo CD4 T cell response to MenB antigens. Groups of 6 CD1 female mice were immunised twice with the mix of MenB antigens, formulated in PBS, alum or α-GC. 10 days after the 2nd immunisation, 3 mice/group were sacrificed and their spleens were removed. Whole splenocyte suspensions from individual mice were cultured with the MenB antigens for 16 hours, the last 12 of which were in the presence of brefeldin A to allow intracellular accumulation of cytokines. […] Percentages of CD3+CD4+CD69+ cytokine+ cells in the total CD4+ cell population were determined by FACS analysis.

[6] = test system: MenB; design: species or system mice; settings: mouse, in vivo
[7] = test system: protein-specific antibodies (TT, DT, H3N2); design: species or system C57/BL6 mice; settings: mouse, in vivo
[8] = test system: GBS80-IgG; design: species or system mice; settings: mouse, in vivo

CCCCCCCCCCCCCCCCCCCCCCCCCC(=O)N[C@@H](CO[C@H]1OC(CO)[C@H](O)C(O)C1O)[C@H](O)[C@@H](O)CCCCCCCCCCCCCC (stereo partly drawn) [α-GC, α-galactosylceramide]
efficacy by timing of α-GC dose ([1]; first versus second vaccine dose): Maximal efficacy was observed when α-GC was given in the first vaccine dose | recall response (H3N2 Ig titers) compared to 2 doses of H3N2 alone ([1]; two weeks after booster with H3N2 alone on week 56): higher recall responses | H3N2-antibody response compared to H3N2 in PBS ([1]; α-GC in both, first only or second only immunisation): enhance the antibody response even when given only in the first or second immunisation | antibody response (IgG titers) to the three MenB antigens [2]: as effective as alum | frequencies of MenB-specific memory B cells in spleen compared to alum [3]: higher frequencies of MenB-specific memory B cells | adjuvant activity [4]: did not display adjuvant activity | expansion of CD4 T cells producing TNFα in response to MenB antigens [5]: more effective than alum | bactericidal antibody titers compared to alum [6]: higher bactericidal antibody titers than alum | serum titers of protein-specific antibodies compared to proteins alone [7]: one to two logs higher | GBS80-IgG response in the mothers relative to alum [8]: 8 fold
